From patent US5126327A, “Melanocyte-stimulating hormone inhibitor and external preparation containing the same” (Lion Corporation, priority 1989, dated 1992)
Residues, ends and D or L forms follow the SMILES beside them. No end group written: not given here.

How the values were obtained:
[1] = system: hair follicle melanocytes; test: MSH-antagonizing effect: eumelanin production in cultured skin grafts, specimen pre-incubated with grafts before α-MSH (Example 2); assay type: cell-based, yellow mice (C 57 BL/6J-A'); parameters: key: ±: weak; +: strong; conditions: skin grafts cultured in Ham's F-12 at 37° C. for 2 days; for Eumelanin production, 10^-9 M of α-MSH and 10^-8 M of specimen added: microscope observation at hair follicles
Description: (§1) Skin grafts (about 1 mm×1 mm) of yellow mice (C 57 BL/6J-A') (7.5 days after the birth) containing hair follicle melanocytes were cultured in Ham's F-12 culture medium at 37° C. for 2 days. The culture media used were: (i) Ham's F-12 medium containing α-MSH, (ii) that containing both α-MSH and the compound of the present invention, i.e., the compound of the present invention and the skin grafts had been incubated in a Ham's F-12 medium so as to interact the compounds with a receptor on the melanocyte surface of the skin and then the resultant was contacted with α-MSH in a fresh Ham's F-12 medium and (iii) that containing no additive. After completion of the culture followed by fixation with 10% formalin, specimens were prepared by an ordinary method.

[2] = system: pigmented spots (chloasmata or freckles); test: External preparation applied to pigmented spots of patients; assay type: in vivo, human; conditions: for Fading/relief of pigmented spots versus comparative cream / Skin trouble during or after use of the cream: cream containing 0.001 wt. % of compound; for Fading/relief of pigmented spots versus comparative cream: applied twice a day for two months, eight male and female patients; for Skin trouble during or after use of the cream: twice a day for two months
Source text: The cream thus prepared was applied to pigmented spots (chloasmata or freckles) of eight male and female patients twice a day (in the morning and evening) for two months.

[3] = system: hair follicle melanocytes; test: MSH-inhibiting effect: eumelanin production in cultured skin grafts, specimen pre-mixed with α-MSH (Example 10); assay type: cell-based, yellow mice (C 57 BL/6J-A'); parameters: key: ±: weak; +: strong; conditions: for Eumelanin production, 10^-9 M of α-MSH and 10^-8 M of specimen added: α-MSH and specimen mixed first, then skin grafts added, Ham's F-12, 37° C., 2 days
Description: as §1, with “i.e., α-MSH and” for “i.e.,”, “were mixed” for “and the skin grafts had been incubated in a Ham's F-12 medium”, “each other” for “the compounds with a receptor on the melanocyte surface of the skin”, “skin grafts were added thereto,” for “resultant was contacted with α-MSH in a fresh Ham's F-12 medium”

Molecule	Eumelanin production, 10^-9 M of α-MSH and 10^-8 M of specimen added [1]	Skin trouble during or after use of the cream [2]	further results
CSCC[C@H](NC(C)=O)C(=O)N[C@@H](CCC(=O)O)C(=O)N[C@@H](Cc1c[nH]cn1)C(=O)N[C@@H](CO)C(=O)N[C@@H](CCCNC(=N)N)C(=O)N[C@@H](Cc1c[nH]c2ccccc12)C(=O)NCC(=O)N[C@@H](CCCCN)C(N)=O [Compound No. 14, Ac--Met--Glu--His--Ser--Arg--Trp--Gly--Lys--NH2] (Ac-MEHSRWGK-NH2)	±	–	–
CSCC[C@H](NC(=O)[C@H](CO)NC(=O)[C@H](Cc1ccc(O)cc1)NC(=O)[C@H](CO)NC(C)=O)C(=O)N[C@@H](CCC(=O)O)C(=O)N[C@@H](Cc1c[nH]cn1)C(=O)N[C@@H](CO)C(=O)N[C@@H](CCCNC(=N)N)C(=O)N[C@@H](Cc1c[nH]c2ccccc12)C(=O)NCC(=O)N[C@@H](CCCCN)C(=O)N1CCC[C@H]1C(=O)N[C@H](C(N)=O)C(C)C [Compound No. 40, Ac--Ser--Tyr--Ser--Met--Glu--His--Ser--Arg--Trp--Gly--Lys--Pro--Val--NH2]	±	no skin trouble was observed	Fading/relief of pigmented spots versus comparative cream [2]: far more faded
CC[C@H](C)[C@H](N)C(=O)N[C@@H](CC(C)C)C(=O)N[C@@H](CC(C)C)C(=O)N[C@@H](C)C(=O)N[C@@H](CS)C(=O)N[C@@H](C)C(=O)N[C@@H](CCCNC(=N)N)C(=O)N[C@H](C(=O)N[C@@H](CO)C(=O)N1CCC[C@H]1C(=O)NCC(=O)N[C@@H](CCCNC(=N)N)C(=O)N[C@@H](CCCNC(=N)N)C(=O)O)[C@@H](C)CC [Compound No. 113, Ile--Leu--Leu--Ala--Cys--Ala--Arg--Ile--Ser--Pro--Gly--Arg--Arg] (H-ILLACARISPGRR-OH)	–	no skin trouble was observed	–
CC[C@H](C)[C@H](NC(C)=O)C(=O)N[C@@H](CC(C)C)C(=O)N[C@@H](CC(C)C)C(=O)N[C@@H](C)C(=O)N[C@@H](CS)C(=O)N[C@@H](C)C(=O)N[C@@H](CCCNC(=N)N)C(=O)N[C@H](C(=O)N[C@@H](CO)C(=O)N1CCC[C@H]1C(=O)NCC(=O)N[C@@H](CCCNC(=N)N)C(=O)N[C@@H](CCCNC(=N)N)C(N)=O)[C@@H](C)CC [Compound No. 116, Ac--Ile--Leu--Leu--Ala--Cys--Ala--Arg--Ile--Ser--Pro--Gly--Arg--Arg--NH2] (Ac-ILLACARISPGRR-NH2)	–	–	Eumelanin production, 10^-9 M of α-MSH and 10^-8 M of specimen added [3]: ±; Relief of pigmented spots versus comparative milky lotion ([2]; milky lotion containing 0.0001 % of compound, same method as Example 3): relieved the pigmented spots
CC[C@H](C)[C@H](NC(=O)[C@H](CC(C)C)NC(=O)[C@H](CC(C)C)NC(=O)[C@H](CC(C)C)NC(=O)[C@H](CCC(N)=O)NC(=O)[C@H](CC(C)C)NC(=O)[C@H](C)NC(=O)[C@H](Cc1c[nH]cn1)NC(=O)[C@@H](N)CC(C)C)C(=O)N[C@@H](CC(C)C)C(=O)N[C@@H](CC(C)C)C(=O)N[C@@H](C)C(=O)N[C@@H](CS)C(=O)N[C@@H](C)C(=O)N[C@@H](CCCNC(=N)N)C(=O)N[C@H](C(=O)N[C@@H](CO)C(=O)N1CCC[C@H]1C(=O)NCC(=O)N[C@@H](CCCNC(=N)N)C(=O)N[C@@H](CCCNC(=N)N)C(=O)O)[C@@H](C)CC [Compound No. 132, Leu--His--Ala--Leu--Gln--Leu--Leu--Leu--Ile--Leu--Leu--Ala--Cys--Ala--Arg--Ile--Ser--Pro--Gly--Arg--Arg] (H-LHALQLLLILLACARISPGRR-OH)	–	no skin trouble was observed	–
CC[C@H](C)[C@H](NC(=O)[C@H](CC(C)C)NC(=O)[C@H](CC(C)C)NC(=O)[C@H](CC(C)C)NC(=O)[C@H](CCC(N)=O)NC(=O)[C@H](CC(C)C)NC(=O)[C@H](C)NC(=O)[C@H](Cc1c[nH]cn1)NC(=O)[C@H](CC(C)C)NC(C)=O)C(=O)N[C@@H](CC(C)C)C(=O)N[C@@H](CC(C)C)C(=O)N[C@@H](C)C(=O)N[C@@H](CS)C(=O)N[C@@H](C)C(=O)N[C@@H](CCCNC(=N)N)C(=O)N[C@H](C(=O)N[C@@H](CO)C(=O)N1CCC[C@H]1C(=O)NCC(=O)N[C@@H](CCCNC(=N)N)C(=O)N[C@@H](CCCNC(=N)N)C(N)=O)[C@@H](C)CC [Compound No. 135, Ac--Leu--His--Ala--Leu--Gln--Leu--Leu--Leu--Ile--Leu--Leu--Ala--Cys--Ala--Arg--Ile--Ser--Pro--Gly--Arg--Arg--NH2] (Ac-LHALQLLLILLACARISPGRR-NH2)	–	–	Eumelanin production, 10^-9 M of α-MSH and 10^-8 M of specimen added [3]: ±
Ac--Cys--Cys--Trp--Arg--Ser--His--Gln--Pro--NH2 (Ac-CCWRSHQP-NH2; cysteine pairing not given here) [compound 74]	±	–	–
Ac--Cys--His--Cys--Cys--Trp--Arg--Ser--His--Gln--Pro--Ala--Arg--Pro--NH2 (Ac-CHCCWRSHQPARP-NH2; cysteine pairing not given here) [Compound No. 85]	±	–	Fading/relief of pigmented spots versus comparative cream [2]: relieved the pigmented spots
α-MSH: melanocyte-stimulating hormone (melanotropin), peptide hormone that activates melanocytes; stimulus in the skin graft test (SYSMEHFRWGKPV; ends and bridges not checked; UniProt P01189 138-150, looked up) [reference compound]	–	–	Eumelanin production, 10^-9 M of α-MSH added ([3]; α-MSH alone, skin grafts cultured in Ham's F-12 at 37° C. for 2 days): +; Eumelanin production, 10^-9 M of α-MSH added ([1]; α-MSH alone): +
